Assay results: patent US20240165097A1, “PHARMACEUTICAL COMPOSITION FOR THE TREATMENT OF ALZHEIMER'S DISEASE OR DEMENTIA” (Heptares Therapeutics Limited, priority 2021, published 2024)
“And” between values parts separate entries of the source, which are not always exact repeats. Equal entries are not always repeated. Where two headings read alike, the source gives them in different places.

Test system: healthy elderly subjects
[1] = 15 mg HTL0018318 + donepezil vs Placebo
[2] = 15 mg HTL0018318 alone vs 15 mg HTL0018318 donepezil
[3] = 15 mg HTL0018318 alone vs Placebo
[4] = 15 mg and 25 mg, in combination with or without donepezil
[5] = 15 mg in combination with donepezil
[6] = 15 mg in combination with donepezil (5 days)
[7] = 15 mg without donepezil (5 days)
[8] = 25 mg HTL0018318 + donepezil vs Placebo
[9] = 25 mg HTL0018318 alone vs 25 mg HTL0018318 donepezil
[10] = 25 mg HTL0018318 alone vs Placebo
[11] = 25 mg in combination with donepezil
[12] = 25 mg in combination with donepezil (5 days)
[13] = 25 mg without donepezil (5 days)
[14] = 25 mg without donepezil vs in combination with donepezil

Description: The study was run in three cohorts to allow within study modification of the dose of HTL0018318 in the event that an unexpected interaction occurred.
HTL0018318 was administered orally as an aqueous solution in 100 ml. Water was used as placebo. To mask the difference in taste between HTL0018318 and placebo, a peppermint strip (Listerine) was administered one minute before and after the administration of the oral solution.
A subset of AEs was created that have a possible relation to increased cholinergic stimulation, being: hyperhidrosis, salivary hypersecretion, hypertension, tachycardia, bradycardia, nausea, diarrhoea, vomiting, constipation, insomnia, dizziness, muscle spasms, hot flush and cold sweat.
Systolic and diastolic blood pressure and pulse rate, all measured in supine and standing position, safety laboratory, electrocardiogram (ECG), and 24-hour Holter ECG were performed.
Saliva production was assessed by measuring the change in weight of three Salivette® dental rolls put into the oral cavity for 3 minutes. Pulmonary function was measured using the Spirostik (Accuramed), a PC-based open spirometry system.
To this end a mixed model analysis of variance was used with treatment, period, time, treatment by period, period by time, treatment by time and treatment by period by time as fixed factors. Subject, subject by period and subject by time were random factors and the pre-HTL0018318 baseline measurement per period was a covariate. In these analysis models, all means are estimated (least square means, LSM). Statistical analysis was conducted with SAS 9.4 for Windows (SAS Institute Inc., Cary, NC, USA). […] Analyses were performed for 15 mg and 25 mg HTL0018318 dose levels separately.

SMILES: CCOC(=O)N1C2CCC1CC(N1CCC3(CC1)CNC(=O)C3)C2 (stereo not shown) [HTL0018318, ethyl 3-(3-oxo-2,8-diazaspiro[4.5]dec-8-yl)-8-azabicyclo[3.2.1]octane-8-carboxylate]
- FEV1/FVC, contrast estimate [1]: 1.052%
- FEV 1 second, contrast estimate [1]: 0.043 L
- FVC, contrast estimate [1]: 0.03719 L
- LSEQ: Awake following sleep, contrast estimate [1]: 3.50
- LSEQ: Behaviour after wake, contrast estimate [1]: 1.51
- LSEQ: Getting to sleep, contrast estimate [1]: 1.59
- LSEQ: Quality of sleep, contrast estimate [1]: 2.42
- PEF, contrast estimate [1]: 0.339 L/s
- Saliva, contrast estimate [1]: 0.707 g
- VAS Alertness, contrast estimate [1]: −0.70 mm
- VAS Calmness, contrast estimate [1]: −2.37 mm
- VAS Mood, contrast estimate [1]: −0.24 mm
- VAS Nausea, contrast estimate [1]: −0.08 log(mm)
- FEV1/FVC, contrast estimate [2]: −0.886%
- FEV 1 second, contrast estimate [2]: 0.127 L
- FVC, contrast estimate [2]: 0.1702 L
- LSEQ: Awake following sleep, contrast estimate [2]: −1.93
- LSEQ: Behaviour after wake, contrast estimate [2]: −0.85
- LSEQ: Getting to sleep, contrast estimate [2]: −0.79
- LSEQ: Quality of sleep, contrast estimate [2]: −0.26
- PEF, contrast estimate [2]: -0.343 L/s
- Saliva, contrast estimate [2]: -0.554 g
- VAS Alertness, contrast estimate [2]: −0.46 mm
- VAS Calmness, contrast estimate [2]: −0.20 mm
- VAS Mood, contrast estimate [2]: −0.03 mm
- VAS Nausea, contrast estimate [2]: −0.01 log(mm)
- FEV1/FVC, contrast estimate [3]: −0.327%
- FEV 1 second, contrast estimate [3]: 0.153 L
- FVC, contrast estimate [3]: 0.2035 L
- LSEQ: Awake following sleep, contrast estimate [3]: −1.72
- LSEQ: Behaviour after wake, contrast estimate [3]: −1.00
- LSEQ: Getting to sleep, contrast estimate [3]: 0.82
- LSEQ: Quality of sleep, contrast estimate [3]: −5.14
- PEF, contrast estimate [3]: 0.282 L/s
- Saliva, contrast estimate [3]: 0.498 g
- VAS Alertness, contrast estimate [3]: −1.96 mm
- VAS Calmness, contrast estimate [3]: −3.17 mm
- VAS Mood, contrast estimate [3]: −2.93 mm
- VAS Nausea, contrast estimate [3]: −0.06 log(mm)
- number of AEs in gastrointestinal disorders class, viral gastroenteritis AEs excluded (15 mg alone): 1 AE
- supine pulse rate compared with placebo [4]: no significant effects
- supine systolic blood pressure compared with placebo [4]: no significant effects
- cholinergic AEs, percentage of subjects [5]: 13%
- nausea reports, viral gastroenteritis AEs excluded [5]: one subject
- supine pulse rate [5]: 64 bpm
- All AEs, percentage of subjects [6]: 50% ( 4/8 subjects)
- Gastrointestinal disorders, percentage of subjects [6]: 13% (⅛ subjects)
- Neurological disorders, percentage of subjects [6]: 13% (⅛ subjects)
- supine pulse rate, mean difference (15 mg in combination with donepezil vs without donepezil): 3.3 bpm
- cholinergic AEs, percentage of subjects (15 mg without donepezil): 0%
- supine pulse rate (15 mg without donepezil): 67 bpm
- All AEs, percentage of subjects [7]: 43% ( 3/7 subjects)
- Gastrointestinal disorders, percentage of subjects [7]: 14% ( 1/7 subjects)
- Neurological disorders, percentage of subjects [7]: 14% ( 1/7 subjects)
- delta pulse rate (15 mg without donepezil vs in combination with donepezil): no significant changes
- number of AEs in gastrointestinal disorders class, viral gastroenteritis AEs excluded (15 mg+donepezil): 3 AEs
- FEV1/FVC, contrast estimate [8]: −0.399%
- FEV 1 second, contrast estimate [8]: 0.085 L
- FVC, contrast estimate [8]: 0.1784 L
- LSEQ: Awake following sleep, contrast estimate [8]: 0.52
- LSEQ: Behaviour after wake, contrast estimate [8]: −0.80
- LSEQ: Getting to sleep, contrast estimate [8]: −0.74
- LSEQ: Quality of sleep, contrast estimate [8]: −1.37
- PEF, contrast estimate [8]: 0.273 L/s
- Saliva, contrast estimate [8]: 0.910 g
- VAS Alertness, contrast estimate [8]: −1.49 mm
- VAS Calmness, contrast estimate [8]: −1.67 mm
- VAS Mood, contrast estimate [8]: −0.38 mm
- VAS Nausea, contrast estimate [8]: −0.04 log(mm)
- FEV1/FVC, contrast estimate [9]: 2.491%
- FEV 1 second, contrast estimate [9]: 0.008 L
- FVC, contrast estimate [9]: -.11255 L
- LSEQ: Awake following sleep, contrast estimate [9]: 0.93
- LSEQ: Behaviour after wake, contrast estimate [9]: 1.86
- LSEQ: Getting to sleep, contrast estimate [9]: 1.72
- LSEQ: Quality of sleep, contrast estimate [9]: 6.49
- PEF, contrast estimate [9]: 0.047 L/s
- Saliva, contrast estimate [9]: -0.349 g
- VAS Alertness, contrast estimate [9]: 0.66 mm
- VAS Calmness, contrast estimate [9]: −0.07 mm
- VAS Mood, contrast estimate [9]: 0.55 mm
- VAS Nausea, contrast estimate [9]: −0.03 log(mm)
- FEV1/FVC, contrast estimate [10]: 1.600%
- FEV 1 second, contrast estimate [10]: 0.077 L
- FVC, contrast estimate [10]: 0.06192 L
- LSEQ: Awake following sleep, contrast estimate [10]: −1.85
- LSEQ: Behaviour after wake, contrast estimate [10]: −0.60
- LSEQ: Getting to sleep, contrast estimate [10]: 1.01
- LSEQ: Quality of sleep, contrast estimate [10]: −2.18
- PEF, contrast estimate [10]: 0.606 L/s
- Saliva, contrast estimate [10]: 0.906 g
- VAS Alertness, contrast estimate [10]: −1.63 mm
- VAS Calmness, contrast estimate [10]: −2.34 mm
- VAS Mood, contrast estimate [10]: −2.49 mm
- VAS Nausea, contrast estimate [10]: −0.05 log(mm)
- number of AEs in gastrointestinal disorders class, viral gastroenteritis AEs excluded (25 mg alone): 3 AEs
- cholinergic AEs, percentage of subjects [11]: 69%
- delta pulse rate (standing from supine) [11]: 12 bpm and 10 bpm
- supine pulse rate [11]: 64 bpm
- supine systolic blood pressure [11]: 120 mm Hg
- All AEs, percentage of subjects [12]: 88% ( 14/16 subjects)
- Gastrointestinal disorders, percentage of subjects [12]: 25% ( 4/16 subjects)
- Neurological disorders, percentage of subjects [12]: 38% ( 6/16 subjects)
- delta pulse rate, mean difference (25 mg in combination with donepezil vs placebo in combination with donepezil): −3.4 bpm
- supine pulse rate, mean difference (25 mg in combination with donepezil vs without donepezil): 1.5 bpm
- cholinergic AEs, percentage of subjects (25 mg without donepezil): 67%
- delta pulse rate (standing from supine) (25 mg without donepezil): 10 bpm and 12 bpm
- supine pulse rate (25 mg without donepezil): 66 bpm
- supine systolic blood pressure (25 mg without donepezil): 118 mm Hg
- All AEs, percentage of subjects [13]: 92% ( 11/12 subjects)
- Gastrointestinal disorders, percentage of subjects [13]: 17% ( 2/12 subjects)
- Neurological disorders, percentage of subjects [13]: 50% ( 6/12 subjects)
- delta pulse rate, mean difference [14]: −1.6 bpm
- supine systolic blood pressure, mean difference [14]: 1.6 mm Hg
- delta pulse rate, mean difference (25 mg without donepezil vs placebo without donepezil): −3.7 bpm
- number of AEs in gastrointestinal disorders class, viral gastroenteritis AEs excluded (25 mg+donepezil): 4 AEs
- laboratory tests, ECG assessment and 24-hour Holter ECG (15 or 25 mg, with and without donepezil): No clinically significant changes
- standing systolic BP, supine and standing diastolic BP, standing-supine BP, standing pulse rate (HTL0018318 in combination with donepezil vs HTL0018318 alone): no significant changes
- VAS alertness, calmness, mood, and nausea (HTL0018318 in combination with donepezil vs without donepezil): no statistically significant effects
- intensity and seriousness of AEs (all treatments of the study): mild or moderate in intensity and there were no serious adverse events
- tolerability (multiple doses in combination with donepezil): generally well tolerated
